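Method: 48-hour compound exposure of cells in 96-well plates, five concentrations, linear interpolation of endpoints. GI50 marks 50% less growth.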 Active and inactive are the calls of the source. No stated cut-off is given here; in the data, active = GI50 up to about 1.1 µM and inactive = higher.

This note sets out measurements from ChEMBL document CHEMBL1201862, “PubChem BioAssay data set” (2004).

Some test systems named below: NCI-H522; UACC-62; RPMI-8226; NCI-H23; HOP-62; LOX IMVI; K562; OVCAR-4; NCI/ADR-RES; U-251; SW-620; SNB-78; 786-0; M19-MEL; ACHN; SR; MDA-N; BT-549; T47D.
Holding throughout (assay): inhibition of tumour cell growth, NCI panel, 48 h

On to `CN(C)CCNc1c2ccccc2c2c3c(cccc13)C(=O)N(CCN(C)C)C2=O`, for which the GI50 in the test with NCI-H522 is 0.123 µM (active); in the test with UACC-62 it was 0.308 µM (active); in the test with RPMI-8226, 0.288 µM (active); with NCI-H23, 0.0904 µM (active); with HOP-62, 1.67 µM (inactive); in the test on LOX IMVI, 0.071 µM (active). Also, the GI50 with K562 was 0.0522 µM (active); with OVCAR-4 it was 0.0455 µM (active); with NCI/ADR-RES, 0.0627 µM (active); with U-251, 0.121 µM (active); with SW-620, 0.0532 µM (active); in the test on SNB-78 it was 0.151 µM (active).
Regarding `COC(=O)c1s/c(=N\C(=S)N(C)C)n(-c2ccc(Cl)cc2)c1C(=O)OC`, the GI50 with 786-0 is > 100 µM (inactive); in the test with NCI-H522, 49 µM (inactive); with M19-MEL it was > 100 µM (inactive); in the test with UACC-62, > 10 µM (inactive); in the test with RPMI-8226, > 100 µM (inactive); in the test on NCI-H23 it was > 100 µM (inactive). Also, the GI50 with HOP-62 was 70.3 µM (inactive); in the test with LOX IMVI, > 100 µM (inactive); in the test on ACHN it was > 100 µM (inactive); in the test on SR, > 100 µM (inactive); in the test with K562, > 100 µM (inactive); in the test on OVCAR-4, 56.4 µM (inactive). Further, the GI50 with U-251, in the test on SW-620 and with SNB-78 was > 100 µM (inactive) throughout.
With `CN(C)CCCNC(=O)c1cn2c(ccc3sc4ccccc4c(=O)c32)n1`, the GI50 in the test with 786-0 was 3.06 µM (inactive); with NCI-H522, 12.4 µM (inactive); with UACC-62, 17.9 µM (inactive); in the test on RPMI-8226 it was 1.73 µM (inactive); in the test with NCI-H23, 13.4 µM (inactive); in the test with HOP-62, 12.3 µM (inactive). Besides, the GI50 in the test with MDA-N is 5.09 µM (inactive); in the test on LOX IMVI, 1.41 µM (inactive); in the test with ACHN, 11.8 µM (inactive); with SR it was 1.95 µM (inactive); in the test with K562, 1.79 µM (inactive); with OVCAR-4, 13.6 µM (inactive). Moreover, the GI50 in the test on NCI/ADR-RES was 2.95 µM (inactive); in the test on BT-549 it was 18.5 µM (inactive); with U-251, 1.63 µM (inactive); in the test on T47D it was 18.3 µM (inactive); in the test with SW-620 it was 1.51 µM (inactive).
As for `Cn1c(=O)c2c(nc3n2CCCC(=O)N3CCCCl)n(C)c1=O`, the GI50 with 786-0, in the test with NCI-H522, in the test on UACC-62, in the test on RPMI-8226, with NCI-H23 and in the test on HOP-62 was > 100 µM (inactive) in each case. Also, the GI50 in the test with MDA-N, in the test with LOX IMVI, in the test on ACHN, in the test on SR, in the test with K562 and in the test with OVCAR-4 was > 100 µM (inactive) throughout. The GI50 in the test on NCI/ADR-RES, in the test with BT-549, with U-251, in the test on T47D and in the test on SW-620 was > 100 µM (inactive) in each case.
On to `CCc1cc2c(c3c1CCCC3)CC1(Cc3ccc(C(=O)OC)cc3C1)C2` (stereo not drawn), for which the GI50 in the test on 786-0 is > 100 µM (inactive); with NCI-H522 it was > 100 µM (inactive); in the test with UACC-62, > 100 µM (inactive); with RPMI-8226, 44.6 µM (inactive); with NCI-H23, > 100 µM (inactive); in the test on HOP-62 it was > 100 µM (inactive). Also, the GI50 with MDA-N was > 100 µM (inactive); in the test on LOX IMVI, > 100 µM (inactive); with ACHN, > 100 µM (inactive); with SR, 28.9 µM (inactive); with K562, 40.3 µM (inactive); with OVCAR-4, > 100 µM (inactive). Further, the GI50 in the test with NCI/ADR-RES was > 100 µM (inactive); with BT-549, > 100 µM (inactive); in the test on U-251 it was 86.1 µM (inactive); with T47D, 46.8 µM (inactive); with SW-620, > 100 µM (inactive).
In the case of `O=S(=O)(O)c1cc(/N=[N+](\[O-])c2cc(S(=O)(=O)O)c3ccccc3c2)cc2ccccc12`, the GI50 was > 100 µM (inactive) in the test on 786-0; 26.2 µM (inactive) with NCI-H522; > 100 µM (inactive) in the test on UACC-62; 28.1 µM (inactive) in the test with RPMI-8226; 25.5 µM (inactive) in the test with NCI-H23; 48 µM (inactive) with HOP-62. The GI50 is 20 µM (inactive) in the test with MDA-N; 25.2 µM (inactive) with LOX IMVI; > 100 µM (inactive) in the test with ACHN; 38.5 µM (inactive) with SR; 30.7 µM (inactive) in the test with K562; 20.5 µM (inactive) in the test on OVCAR-4. In addition, the GI50 was > 100 µM (inactive) in the test with NCI/ADR-RES; 19.5 µM (inactive) in the test with BT-549; 60.4 µM (inactive) in the test with U-251; > 100 µM (inactive) in the test with T47D; 31.8 µM (inactive) with SW-620.
Take `Cc1ccc2c(c1)[n+]([O-])c(N)n[n+]2[O-]`: the GI50 with 786-0 was > 100 µM (inactive); in the test with NCI-H522, 39.6 µM (inactive); in the test on UACC-62, > 10 µM (inactive); in the test with RPMI-8226, > 100 µM (inactive); with NCI-H23 it was 63.2 µM (inactive); in the test with HOP-62, > 100 µM (inactive). For the same compound, the GI50 in the test with MDA-N was > 100 µM (inactive); with LOX IMVI, 85.3 µM (inactive); in the test on ACHN it was > 100 µM (inactive); in the test with SR it was > 100 µM (inactive); in the test with K562, > 100 µM (inactive); in the test with OVCAR-4, > 100 µM (inactive). Besides, the GI50 was > 100 µM (inactive) with NCI/ADR-RES; > 100 µM (inactive) with BT-549; > 100 µM (inactive) in the test with U-251; 93.5 µM (inactive) with T47D; > 100 µM (inactive) in the test with SW-620.
Take `COc1c(O)cc2c(c1O)C(=O)/C(=C/c1ccc(O)cc1)CO2`: the GI50 in the test on 786-0 was 30.8 µM (inactive); in the test with NCI-H522, 14.4 µM (inactive); in the test on UACC-62 it was 19.2 µM (inactive); in the test on RPMI-8226 it was 9.33 µM (inactive); in the test with NCI-H23 it was 26.8 µM (inactive); with HOP-62, 33.1 µM (inactive). Moreover, the GI50 in the test with MDA-N is 28.7 µM (inactive); in the test with LOX IMVI, 21.7 µM (inactive); in the test on ACHN, 19.8 µM (inactive); in the test on SR, 13.5 µM (inactive); in the test on K562, 28.9 µM (inactive); in the test on OVCAR-4 it was 20.1 µM (inactive). In addition, the GI50 with NCI/ADR-RES is 22.9 µM (inactive); in the test on BT-549, 32.9 µM (inactive); in the test on U-251 it was 33.7 µM (inactive); in the test on T47D it was 30.8 µM (inactive); with SW-620 it was 26.7 µM (inactive).
On to `CC1=C2O[B-](c3ccccc3)(c3ccccc3)[O+]=C2C=CN1`, for which the GI50 in the test on 786-0 is 46.2 µM (inactive); with M19-MEL it was 62.4 µM (inactive); with UACC-62, 21.2 µM (inactive); with RPMI-8226 it was 28.3 µM (inactive); in the test with NCI-H23 it was 36.6 µM (inactive); with HOP-62, 25.9 µM (inactive). The GI50 with LOX IMVI was 52.4 µM (inactive); in the test with ACHN it was 27.9 µM (inactive); in the test on K562 it was 40.4 µM (inactive); in the test with OVCAR-4 it was 64.7 µM (inactive); in the test on U-251, 55.6 µM (inactive); in the test with SW-620, 44.9 µM (inactive). Besides, the GI50 in the test on SNB-78 is 51.8 µM (inactive).
Regarding `O=[N+]([O-])/C=C/c1c(Cl)cccc1Cl`, the GI50 with 786-0 was 0.809 µM (active); with NCI-H522, 1.61 µM (inactive); with UACC-62 it was 2.77 µM (inactive); in the test on RPMI-8226, 0.838 µM (active); with NCI-H23 it was 4.46 µM (inactive); in the test with HOP-62 it was 6.38 µM (inactive). In addition, the GI50 is 2.89 µM (inactive) with MDA-N; 1.37 µM (inactive) with LOX IMVI; 2.48 µM (inactive) with ACHN; 0.933 µM (active) in the test on SR; 1.68 µM (inactive) in the test on K562; 3.56 µM (inactive) with OVCAR-4. Moreover, the GI50 was 1.96 µM (inactive) in the test on NCI/ADR-RES; 2.01 µM (inactive) with BT-549; 2.61 µM (inactive) with U-251; 2.06 µM (inactive) in the test on T47D; 0.966 µM (active) with SW-620.
In the case of `Cc1ccc(C2=Nn3c(nc4sc(-c5ccccc5)cc4c3=O)SC2)cc1`, the GI50 with 786-0, with NCI-H522, in the test on UACC-62, in the test with RPMI-8226, in the test on NCI-H23 and in the test on HOP-62 was > 100 µM (inactive) each time. Besides, the GI50 in the test on MDA-N, in the test on LOX IMVI, with ACHN, in the test with SR, in the test on K562 and in the test with OVCAR-4 was > 100 µM (inactive) in each case. Moreover, the GI50 in the test on NCI/ADR-RES, in the test with BT-549, in the test on U-251, in the test on T47D and with SW-620 was > 100 µM (inactive) throughout.
As to `COc1ccc(CC2COc3cc(OC)cc(OC)c3C2=O)cc1` (stereo not drawn), the GI50 with 786-0 was 19 µM (inactive); in the test with NCI-H522, 9.14 µM (inactive); in the test with UACC-62, 32.8 µM (inactive); with RPMI-8226, 15.3 µM (inactive); in the test on NCI-H23, 23.6 µM (inactive); in the test on HOP-62, 24.9 µM (inactive). The GI50 in the test with MDA-N is 3.76 µM (inactive); in the test on LOX IMVI it was 34.5 µM (inactive); with ACHN, 46.8 µM (inactive); in the test on SR it was 4.57 µM (inactive); in the test on K562, 31 µM (inactive); in the test with OVCAR-4, 17.2 µM (inactive). For the same compound, the GI50 in the test on NCI/ADR-RES was 8.34 µM (inactive); in the test with BT-549 it was 44.2 µM (inactive); in the test on U-251, 37 µM (inactive); in the test with T47D, 16.7 µM (inactive); in the test on SW-620, 29.8 µM (inactive).
